Test results: PMC6219668 (Oncotarget, 2018)

Tested on: panel of nearly 500 cancer cell lines
Assay: Cancer Cell Line Encyclopedia profiling, 3-day CellTiter-Glo
Format: cell-based
Design: Amax: unit not given here

CN(C)C(=O)c1cc2cnc(Nc3ccc(N4CCNCC4)cn3)nc2n1C1CCCC1 [Ribociclib, 7-cyclopentyl-2-(5-piperazin-1-yl-pyridin-2-ylamino)-7H-pyrrolo[2,3-d]pyrimidine-6-carboxylic acid dimethylamide]
EC50 (Homo sapiens, TCC-SUP): > 8 µM | IC50 (Homo sapiens, TCC-SUP): > 8 µM | EC50 (Homo sapiens, TE-11): 2.09 µM | IC50 (Homo sapiens, TE-11): > 8 µM | EC50 (Homo sapiens, TE-15): 1.23 µM | IC50 (Homo sapiens, TE-15): > 8 µM | EC50 (Homo sapiens, TOV21G): 1.23 µM | IC50 (Homo sapiens, TOV21G): > 8 µM | EC50 (Homo sapiens, TOV112D): 0.995 µM | IC50 (Homo sapiens, TOV112D): > 8 µM | EC50 (Homo sapiens, Toledo): 1.52 µM | IC50 (Homo sapiens, Toledo): > 8 µM | EC50 (Homo sapiens, U2OS): 2.09 µM | IC50 (Homo sapiens, U2OS): > 8 µM | EC50 (Homo sapiens, U-87 MG): > 8 µM | IC50 (Homo sapiens, U-87 MG): > 8 µM | EC50 (Homo sapiens, U-118-MG): 2.68 µM | IC50 (Homo sapiens, U-118-MG): > 8 µM | EC50 (Homo sapiens, U-937): 1.74 µM | IC50 (Homo sapiens, U-937): 3.52 µM | EC50 (Homo sapiens, UACC-62): 1.62 µM | IC50 (Homo sapiens, UACC-62): > 8 µM | EC50 (Homo sapiens, UACC-257): 0.577 µM | IC50 (Homo sapiens, UACC-257): > 8 µM | EC50 (Homo sapiens, UACC-812): > 8 µM | IC50 (Homo sapiens, UACC-812): > 8 µM | EC50 (Homo sapiens, UMUC3): > 8 µM | IC50 (Homo sapiens, UMUC3): > 8 µM | EC50 (Homo sapiens, WM 266-4): 0.946 µM | IC50 (Homo sapiens, WM 266-4): > 8 µM | EC50 (Homo sapiens, WM793): > 8 µM | IC50 (Homo sapiens, WM793): > 8 µM | EC50 (Homo sapiens, WM-115): > 8 µM | IC50 (Homo sapiens, WM-115): > 8 µM | EC50 (Homo sapiens, YKG-1): > 8 µM | IC50 (Homo sapiens, YKG-1): > 8 µM | EC50 (Homo sapiens, ZR-75-1): > 8 µM | IC50 (Homo sapiens, ZR-75-1): > 8 µM | EC50 (Homo sapiens, ZR-75-30): > 8 µM | IC50 (Homo sapiens, ZR-75-30): > 8 µM | EC50 (Hs766T): > 8 µM | IC50 (Hs766T): > 8 µM | EC50 (IGR-39): > 8 µM | IC50 (IGR-39): > 8 µM | EC50 (JHH7): 1.83 µM | IC50 (JHH7): > 8 µM | EC50 (JHH-2): 7.93 µM | IC50 (JHH-2): > 8 µM | EC50 (JHH-4): 2.24 µM | IC50 (JHH-4): > 8 µM | EC50 (JMSU-1): > 8 µM | IC50 (JMSU-1): > 8 µM | EC50 (KE-97): 3.81 µM | IC50 (KE-97): 4.53 µM | EC50 (KHM-1B): 0.34 µM | IC50 (KHM-1B): > 8 µM | IC50 (KMM-1): 4.23 µM | EC50 (KMRC-1): 0.907 µM | IC50 (KMRC-1): > 8 µM | EC50 (KMS-26): 3.37 µM | IC50 (KMS-26): 2.53 µM | EC50 (Karpas-620): 0.0773 µM | IC50 (Karpas-620): > 8 µM | EC50 (Kelly): 6.64 µM | IC50 (Kelly): 6.64 µM | EC50 (LOU-NH91): > 8 µM | IC50 (LOU-NH91): > 8 µM | EC50 (LUDLU-1): 0.0154 µM | IC50 (LUDLU-1): > 8 µM | EC50 (Mono-Mac-1): 0.704 µM | IC50 (Mono-Mac-1): 3.22 µM | EC50 (NCI-H322): > 8 µM | IC50 (NCI-H322): > 8 µM | EC50 (NCI-H1339): > 8 µM | IC50 (NCI-H1339): > 8 µM | EC50 (NCI-H1568): > 8 µM | IC50 (NCI-H1568): > 8 µM | EC50 (NCI-H1915): > 8 µM | IC50 (NCI-H1915): > 8 µM | EC50 (NCI-H2023): 0.0698 µM | IC50 (NCI-H2023): > 8 µM | EC50 (NCI-H2172): > 8 µM | IC50 (NCI-H2172): > 8 µM | EC50 (OCUM1): > 8 µM | IC50 (OCUM1): > 8 µM | EC50 (OE21): > 8 µM | IC50 (OE21): 4.52 µM | EC50 (ONCO-DG-1): > 8 µM | IC50 (ONCO-DG-1): > 8 µM | EC50 (PK-59): > 8 µM | IC50 (PK-59): > 8 µM | EC50 (PL45): 0.0975 µM | IC50 (PL45): > 8 µM | EC50 (PaTu 8902): > 8 µM | IC50 (PaTu 8902): > 8 µM | EC50 (QGP-1): 0.309 µM | IC50 (QGP-1): 2.33 µM | EC50 (SH-10-TC): > 8 µM | IC50 (SH-10-TC): > 8 µM | EC50 (SUIT-2): 1.62 µM | IC50 (SUIT-2): 7.97 µM | EC50 (SW579): 0.929 µM | IC50 (SW579): > 8 µM | EC50 (SW1271): 2.54 µM | IC50 (SW1271): > 8 µM | EC50 (TC-71): > 8 µM | IC50 (TC-71): > 8 µM | EC50 (WM983B): 0.114 µM | IC50 (WM983B): 0.327 µM | EC50 (WM-1799): 0.202 µM | IC50 (WM-1799): > 8 µM | Amax (a172 (central_nervous_system)): -18.6367 | Amax (a204 (soft_tissue)): -24.3309 | Amax (a253 (salivary_gland)): 9.763 | Amax (a2058 (skin)): 0.435 | Amax (g402 (soft_tissue)): -59.1579 | Amax (gamg (central_nervous_system)): -4.349 | Amax (gb1 (central_nervous_system)): -5.547 | Amax (gciy (stomach)): -6.8217 | Amax (gct (soft_tissue)): -35.032 | Amax (gi1 (central_nervous_system)): 1.537 | Amax (glc82 (lung)): 6.841 | Amax (gms10 (central_nervous_system)): 6.4331 | Amax (granta519 (haematopoietic_and_lymphoid_tissue)): -7.882 | Amax (h4 (central_nervous_system)): -7.315 | Amax (hara (lung)): -39.5316 | Amax (hcc15 (lung)): 11.5352 | Amax (hcc44 (lung)): -21.2383 | Amax (hcc56 (large_intestine)): -7.243 | Amax (hcc70 (breast)): 9.331 | Amax (hcc78 (lung)): 8.5798 | Amax (hcc827 (lung)): 5.053 | Amax (hcc1187 (breast)): -1.8256 | Amax (hcc1395 (breast)): 4.555 | Amax (hcc1569 (breast)): -4.171 | Amax (hcc1806 (breast)): -2.407 | Amax (hcc1954 (breast)): 5.4786 | Amax (hcc2935 (lung)): 3.035 | Amax (hcc4006 (lung)): -45.676 | Amax (hct15 (large_intestine)): -18.4329 | Amax (hct116 (large_intestine)): -41.8056 | Amax (hdmyz (haematopoietic_and_lymphoid_tissue)): -70.2074 | Amax (hdqp1 (breast)): -11.6831 | Amax (hec1a (endometrium)): -0.2935 | Amax (hec1b (endometrium)): -44.265 | Amax (hec6 (endometrium)): 9.745 | Amax (hec59 (endometrium)): -17.0499 | Amax (hec151 (endometrium)): 0.04545 | Amax (hec251 (endometrium)): 3.202 | Amax (hec265 (endometrium)): 6.223 | Amax (hel9217 (haematopoietic_and_lymphoid_tissue)): 0.4869 | Amax (hep3b217 (liver)): 2.738 | Amax (hepg2 (liver)): -37.2895 | Amax (heya8 (ovary)): -44.7632 | Amax (hgc27 (stomach)): -65.8757 | Amax (hh (haematopoietic_and_lymphoid_tissue)): -3.613 | Amax (hle (liver)): -18.5726 | Amax (hlf (liver)): 6.292 | Amax (hmc18 (breast)): -31.7315 | Amax (hmcb (skin)): -41.1129 | Amax (hos (bone)): -0.8851 | Amax (hpac (pancreas)): -55.1912 | Amax (hpafii (pancreas)): -3.9084 | Amax (hs229t (lung)): -28.1577 | Amax (hs294t (skin)): -32.1941 | Amax (hs578t (breast)): -21.2687 | Amax (hs695t (skin)): -3.506 | Amax (hs729 (soft_tissue)): 10.8537 | Amax (hs739t (breast)): -26.62 | Amax (hs746t (stomach)): -37.6649 | Amax (hs766t (pancreas)): -32.0513 | Amax (hs840t (upper_aerodigestive_tract)): -29.2379 | Amax (hs852t (skin)): -6.059 | Amax (hs936t (skin)): -38.0651 | Amax (hs939t (skin)): -14.4612 | Amax (hsc2 (upper_aerodigestive_tract)): 0.4805 | Amax (ht29 (large_intestine)): -56.1634 | Amax (ht144 (skin)): -18.5925 | Amax (ht1080 (soft_tissue)): -36.8044 | Amax (ht1197 (urinary_tract)): -10.59 | Amax (ht1376 (urinary_tract)): 7.547 | Amax (ht (haematopoietic_and_lymphoid_tissue)): 8.223 | Amax (hucct1 (biliary_tract)): 1.7282 | Amax (huh1 (liver)): -43.6531 | Amax (hupt3 (pancreas)): -32.6303 | Amax (hupt4 (pancreas)): -52.4819 | Amax (hut78 (haematopoietic_and_lymphoid_tissue)): 8.299 | Amax (ialm (lung)): 0.7254 | Amax (igr37 (skin)): -22.1572 | Amax (igr39 (skin)): 0.9211 | Amax (igrov1 (ovary)): -1.9772 | Amax (im95 (stomach)): -0.7889 | Amax (imr32 (autonomic_ganglia)): -55.0108 | Amax (ipc298 (skin)): -16.0715 | Amax (ishikawaheraklio02er (endometrium)): 0.9691 | Amax (istmes1 (pleura)): -35.2757 | Amax (istmes2 (pleura)): -42.1214 | Amax (j82 (urinary_tract)): -0.8954 | Amax (jhh2 (liver)): -16.2272 | Amax (jhh4 (liver)): -26.3135 | Amax (jhh5 (liver)): -74.5916 | Amax (jhh6 (liver)): 4.949 | Amax (jhh7 (liver)): -42.8596 | Amax (jhos2 (ovary)): 12.8505 | Amax (jhos4 (ovary)): 4.354 | Amax (jhuem2 (endometrium)): -27.6126
